Measurements: article PMC5653977 (EMBO Molecular Medicine, 2017)
Counter-ions that a name gives are not always drawn.

The molecules below were run on pyramidal neurons of the prefrontal cortex (assay: Spontaneous inhibitory postsynaptic currents (sIPSCs) in acute prefrontal cortex slices). Settings: 10 μM, bath application.
Type: cell-based, mouse
Protocol: (§1) 300‐μm‐thick transverse slices comprising the medial prefrontal cortex (mPFC) area were prepared from 7‐ to 8‐week‐old C57Bl/6 mice as described previously (Teng et al, 2013; Agarwal et al, 2014). All recordings were performed in cortical layer V projection neurons. The bath solution consisted of oxygenated artificial cerebrospinal fluid (ACSF) containing NaCl 126 mM, KCl 3 mM, NaH2PO4 1.25 mM, MgSO4 1 mM, NaHCO3 26 mM, CaCl2 2 mM, glucose 10 mM, and the pH 7.2 adjusted with NaOH. Spontaneous GABAergic inhibitory postsynaptic currents (sIPSC) and evoked GABAergic inhibitory postsynaptic currents (eIPSC) were recorded at a holding potential of −70 mV in the presence of 6‐cyano‐7‐nitroquinoxaline‐2,3‐dione (CNQX, 10 μM) and DL‐2‐amino‐5‐phosphonovaleric acid (D‐APV, 50 μM). Glass pipettes were filled with the solution containing: KCl 140 mM, MgCl2 2 mM, CaCl2 1 mM, Na2GTP 0.5 mM, Na2ATP 4 mM, EGTA 10 mM, HEPES 10 mM. Patches with a series resistance of > 25 MΩ, a membrane resistance of < 0.8 GΩ, or leak currents of > 150 pA were excluded. Biphasic rectangular electric pulses (10 ms, 100–300 μA) were applied to layer I of the prelimbic area of mPFC through another glass pipette filled with ACSF. Synaptic currents were acquired at 20 kHz and filtered at 6 kHz, with a Digidata 1440 ADC‐converter coupled to a Multiclamp 700B amplifier (Molecular Devices, USA). Data acquisition was performed using pClamp10 software (Molecular Devices). MiniAnalysis 6.0.9 (Synaptosoft Inc., Decatur, USA) and pClamp10.1 were used for amplitude and frequency analysis of sIPSCs and eIPSCs, respectively. Paired Student's t‐test was used for statistical analysis.

| Molecule | sIPSC amplitude | sIPSC frequency |
| --- | --- | --- |
| C[C@]12CCC(=O)C=C1C=C[C@@H]1[C@@H]2CC[C@@]2(C)[C@H]1CC[C@@]21CCC(=O)O1 [canrenone] | no significant effect | no significant effect |

These molecules were tested on pyramidal neurons of the prefrontal cortex (assay: Evoked inhibitory postsynaptic currents (eIPSCs) in acute prefrontal cortex slices). Settings: 5 μM.
Type: cell-based, mouse
Protocol: as §1, with “Data acquisition was performed using pClamp10 software (Molecular Devices). MiniAnalysis 6.0.9 (Synaptosoft Inc., Decatur, USA) and pClamp10.1 were used for amplitude and frequency analysis of sIPSCs and eIPSCs, respectively. Paired Student's t‐test was used for statistical analysis.” left out

| Molecule | eIPSC amplitude |
| --- | --- |
| CS(=O)(=O)CCNCc1ccc(-c2ccc3ncnc(Nc4ccc(OCc5cccc(F)c5)c(Cl)c4)c3c2)o1 [lapatinib, Lapatinib ditosylate] | increases |

The molecules below were run against T1, ERBB4-PIK3R1 (Homo sapiens, UniProt Q15303) (assay: ERBB4-PIK3R1 split TEV single-culture dose-response assay, EGFld as stimulus). Settings: PC12 cells, 10 ng/ml EGFld as stimulus.
T1 construct: human full‐length ERBB4‐Cyt1 was fused to the NTEV fragment; expressed in transfected cells; host or cells: PC12 Tet-Off cells (rat)
T1 sequence (Q15303 26-1308): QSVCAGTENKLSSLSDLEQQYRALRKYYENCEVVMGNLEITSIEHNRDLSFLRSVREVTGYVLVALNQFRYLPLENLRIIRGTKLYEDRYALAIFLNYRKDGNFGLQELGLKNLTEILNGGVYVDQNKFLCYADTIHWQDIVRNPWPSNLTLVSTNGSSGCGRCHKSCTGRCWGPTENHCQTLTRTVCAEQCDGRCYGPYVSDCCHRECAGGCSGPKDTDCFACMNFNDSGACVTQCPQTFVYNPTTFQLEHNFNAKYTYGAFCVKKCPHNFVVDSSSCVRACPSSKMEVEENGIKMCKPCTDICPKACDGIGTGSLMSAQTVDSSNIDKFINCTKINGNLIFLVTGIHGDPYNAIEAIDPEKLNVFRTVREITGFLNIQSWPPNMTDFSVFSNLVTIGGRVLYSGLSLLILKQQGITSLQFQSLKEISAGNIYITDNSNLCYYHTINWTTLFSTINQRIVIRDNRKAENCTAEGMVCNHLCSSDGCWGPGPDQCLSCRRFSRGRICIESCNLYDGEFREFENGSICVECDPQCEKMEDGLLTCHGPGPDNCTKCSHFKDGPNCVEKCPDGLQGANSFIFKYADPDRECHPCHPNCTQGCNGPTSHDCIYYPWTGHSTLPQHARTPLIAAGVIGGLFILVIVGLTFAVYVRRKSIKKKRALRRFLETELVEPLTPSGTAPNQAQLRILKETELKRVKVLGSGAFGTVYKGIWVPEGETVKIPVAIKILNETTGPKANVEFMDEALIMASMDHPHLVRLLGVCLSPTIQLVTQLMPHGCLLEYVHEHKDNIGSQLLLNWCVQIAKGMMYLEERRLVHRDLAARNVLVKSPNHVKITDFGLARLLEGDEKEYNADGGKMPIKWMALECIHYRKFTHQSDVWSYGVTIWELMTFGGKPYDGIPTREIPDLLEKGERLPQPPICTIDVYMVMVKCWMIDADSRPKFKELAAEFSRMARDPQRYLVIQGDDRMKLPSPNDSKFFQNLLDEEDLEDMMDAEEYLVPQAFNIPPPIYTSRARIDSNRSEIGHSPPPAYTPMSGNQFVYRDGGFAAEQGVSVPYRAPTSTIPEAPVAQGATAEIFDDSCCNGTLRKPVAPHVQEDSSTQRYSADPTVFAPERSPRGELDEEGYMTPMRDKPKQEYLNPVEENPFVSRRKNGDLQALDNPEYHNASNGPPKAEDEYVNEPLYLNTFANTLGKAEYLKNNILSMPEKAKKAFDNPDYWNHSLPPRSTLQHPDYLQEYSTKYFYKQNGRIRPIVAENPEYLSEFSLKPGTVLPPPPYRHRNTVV
Type: cell-based
Text: For our HTS‐compatible split TEV assay approach, human full‐length ERBB4‐Cyt1 was fused to the NTEV fragment, a TEV protease cleavage site (tevS) and the artificial co‐transcriptional activator Gal4‐VP16 (ERBB4‐NTEV‐tevS‐GV); human PIK3R1 was fused to the CTEV fragment (PIK3R1‐CTEV) (Fig 1A). Upon ERBB4 activation, PIK3R1 is recruited to the receptor resulting in a reconstituted protease activity that cleaves off GV. In turn, released GV translocates to the nucleus and binds to upstream activating sequences (UAS) to activate the transcription of a firefly luciferase reporter gene (Fig 1A). A constitutively expressed Renilla luciferase driven under the control of the human thymidine kinase (TK) promoter was used as control to address off‐target effects related to toxicity.
For one 96‐well plate, 4 × 10^6 PC12 cells were harvested and diluted in 5 ml assay medium (phenol red‐free DMEM (low glucose, Life Technologies), 10% FCS, 5% HS, no antibiotics). The split TEV assay plasmids (2 μg pcDNA3_ERBB4‐NTEV‐tevS‐GV‐2xHA, 2 μg pTag4C_PIK3R1‐CTEV‐2xHA, 2 μg p5xUAS_firefly luciferase, 2 μg pTK_Renilla luciferase, and 0.5 μg pECFP‐C1 for examining transfection efficiency) were diluted in 2.5 ml Opti‐MEM (Life Technologies) and vortexed. In parallel, 20 μl of the transfection reagent Lipofectamine 2000 was diluted in 2.5 ml Opti‐MEM and vortexed.

| Molecule | inhibitory effect in the ERBB4-PIK3R1 single-culture assay |
| --- | --- |
| CS[C@@H]1CC2=CC(=O)CC[C@]2(C)C2CC[C@@]3(C)C(CCC34CCC(=O)O4)C21 (some centres unmarked) | None of these compounds showed an inhibitory effect |
| C[C@]12CCC(=O)C=C1C=C[C@@H]1[C@@H]2CC[C@@]2(C)[C@H]1CC[C@@]21CCC(=O)O1 [canrenone] | None of these compounds showed an inhibitory effect |
| COC(=O)[C@@H]1CC2=CC(=O)CC[C@]2(C)[C@@]23O[C@@H]2C[C@@]2(C)[C@@H](CC[C@@]24CCC(=O)O4)[C@H]13 [eplerenone] | None of these compounds showed an inhibitory effect |

Same assay, conditions: PC12 split TEV assay cells, single culture

| Molecule | EC50, ERBB4-PIK3R1 dose-response assay using EGFld as stimulus [ng/mL] |
| --- | --- |
| EGFld: soluble biologically active EGF-like domain of NRG1, used as Nrg1 stimulus (Reprokine, RKQ02297) | 1 |

These molecules were tested against ERBB4 (Homo sapiens, UniProt Q15303) (assay: Western blot of ERBB4 phosphorylation in T-47D cells). Settings: 10 ng/ml EGFld, 10 μM compound, 5 min.
Sequence of ERBB4 (Q15303 26-1308): as above

| Molecule | ERBB4 phosphorylation at Tyr1056 and Tyr1284 |
| --- | --- |
| CS(=O)(=O)CCNCc1ccc(-c2ccc3ncnc(Nc4ccc(OCc5cccc(F)c5)c(Cl)c4)c3c2)o1 [lapatinib, Lapatinib ditosylate] | completely reverted |

The molecules below were run on NRG1-ERBB4 signaling (assay: Nrg1-ERBB4-PIK3R1 split TEV co-culture compound screen of the NIH Clinical Collection). Settings: NIH Clinical Collection NCC-003 raw data; compounds ranked by Z-score; 'flagged' given instead of a Z-score.
Type: cell-based, human

| Molecule | Z-SCORE |
| --- | --- |
| CC[C@]1(O)C[C@H]2CN(CCc3c([nH]c4ccccc34)[C@@](C(=O)OC)(c3cc4c(cc3OC)N(C=O)[C@H]3[C@@](O)(C(=O)OC)[C@H](OC(C)=O)[C@]5(CC)C=CCN6CC[C@]43[C@@H]65)C2)C1 [VINCRISTINE SULFATE] | flagged |
| CC[C@]1(O)C[C@@H]2CN(CCc3c([nH]c4ccccc34)[C@@](C(=O)OC)(c3cc4c(cc3OC)N(C)[C@H]3[C@@](O)(C(N)=O)[C@H](O)[C@]5(CC)C=CCN6CC[C@]43[C@@H]65)C2)C1 [VINDESINE SULFATE] | flagged |
| O=c1c(-c2ccccc2)c1-c1ccccc1 [diphenylcyclopropenone] | flagged |
| CC[C@H](C)C(=O)O[C@H]1CCC=C2C=C[C@H](C)[C@H](CC[C@@H]3C[C@@H](O)CC(=O)O3)[C@H]21 [mevastatin] | flagged |
| CCOC(=O)[C@H](CCc1ccccc1)N[C@@H](C)C(=O)N1[C@H](C(=O)O)C[C@@H]2CCC[C@@H]21 [reference compound] | -1.41 |
| MEDROXYPROGESTERONE | -2.38 |

Same assay, conditions: compound screen of the NIH Clinical Collection, sheet raw data NCC-003; compounds ranked by Z-score

| Molecule | Z-SCORE |
| --- | --- |
| C[C@@H](c1ncncc1F)[C@](O)(Cn1cncn1)c1ccc(F)cc1F [VORICONAZOLE] | -0.06 |
| CCCc1nc(C)c2c(=O)[nH]c(-c3cc(S(=O)(=O)N4CCN(CC)CC4)ccc3OCC)nn12.O=C(O)CC(O)(CC(=O)O)C(=O)O [Vardenafil citrate, reference compound] | 5.88 |
| Cc1ccnc2c1NC(=O)c1cccnc1N2C1CC1 [Viramune] | 0.09 |
| CN(CCO)CC(O)Cn1cnc2c1c(=O)n(C)c(=O)n2C.O=C(O)c1cccnc1 (centres unmarked) [XANTHINOL NICOTINATE] | -0.46 |
| COc1cc(C(=O)NS(=O)(=O)c2ccccc2C)ccc1Cc1cn(C)c2ccc(NC(=O)OC3CCCC3)cc12 [ZAFIRLUKAST] | -0.67 |
| C[C@H]1CCC[C@H](O)CCCCCc2cc(O)cc(O)c2C(=O)O1 [ZERANOL] | -0.91 |
| CC(c1cc2ccccc2s1)N(O)C(N)=O (centres unmarked) [ZILEUTON] | 1.28 |
| Cc1ccc(-c2nc3ccc(C)cn3c2CC(=O)N(C)C)cc1 [ZOLPIDEM TARTRATE] | -0.69 |
| COc1cc(N)c(Cl)cc1C(=O)NC1CN2CCC1CC2 (centres unmarked) [Zacopride] | -0.82 |
| CCN(C(C)=O)c1cccc(-c2ccnc3c(C#N)cnn23)c1 [Zaleplon] | -0.02 |
| CN(C)CCc1c[nH]c2ccc(C[C@H]3COC(=O)N3)cc12 [Zolmitriptan] | 0.57 |
| CC[C@@H]1C=CC=CC[C@H](C)[C@@H](O)[C@@H](C)C(=O)[C@H](C)[C@@H](O)[C@H](C)C(=O)[C@H](C)[C@@H](O)[C@H](C)C=CC(=O)O[C@H]2[C@@H](C)[C@@H](CC1)O[C@@]1(CC[C@@H](C)[C@@H](C[C@H](C)O)O1)[C@@H]2C [[…]] | -0.54 |
| CN1CCN2c3ncccc3Cc3ccccc3C2C1 (centres unmarked) [mirtazapine, reference compound] | -0.36 |
| C[C@]12CC[C@H]3[C@@H](CCC4=CC(=O)CC[C@@H]43)[C@@H]1CC[C@@H]2O [nandrolone] | -0.57 |
| Benzeneacetic acid | -0.01 |

Same assay, conditions: compounds at 10 μM, 24 h; PC12 split TEV assay cells co-cultured with Nrg1-expressing PC12 cells; analysed with cellHTS2

| Molecule | Z-SCORE |
| --- | --- |
| CCCC(CCC)C(=O)O [Valproic Acid, reference compound] | -1.05 |
| CCCc1nc(C)c2c(=O)[nH]c(-c3cc(S(=O)(=O)N4CCN(CC)CC4)ccc3OCC)nn12.O=C(O)CC(O)(CC(=O)O)C(=O)O [Vardenafil citrate, reference compound] | 5.88 |
| O=C(O)c1cc2ccccc2c(Cc2c(O)c(C(=O)O)cc3ccccc23)c1O.OCCOCCN1CCN(C(c2ccccc2)c2ccc(Cl)cc2)CC1 [Vistaril Pamoate, reference compound] | -1.45 |
| CC(=O)CC(c1ccccc1)c1c(O)c2ccccc2oc1=O (centres unmarked) [WARFARIN SODIUM, reference compound] | -0.02 |
| CCCCC(=O)O[C@]1(C(=O)CO)CC[C@H]2[C@@H]3CCC4=CC(=O)CC[C@]4(C)[C@H]3[C@@H](O)C[C@@]21C [Westcort, reference compound] | -0.71 |
| NS(=O)(=O)Cc1noc2ccccc12 [Zonisamide, reference compound] | -0.47 |
| COC(=O)[C@H](c1ccccc1Cl)N1CCc2sccc2C1 [clopidogrel, reference compound] | -0.3 |
| CC(C)n1c(/C=C/C(O)CC(O)CC(=O)O)c(-c2ccc(F)cc2)c2ccccc21 (centres unmarked) [fluvastatin, reference compound] | flagged |
| CN1CCN2c3ncccc3Cc3ccccc3C2C1 (centres unmarked) [mirtazapine, reference compound] | 0.65 |
| CCOC(=O)[C@H](CCc1ccccc1)N[C@@H](C)C(=O)N1[C@H](C(=O)O)C[C@@H]2CCC[C@@H]21 [reference compound] | 4.3 |
| Cc1cn([C@H]2C[C@H](N=[N+]=[N-])[C@@H](CO)O2)c(=O)[nH]c1=O [zidovudine, reference compound] | 0.17 |
| S(-)-Timolol maleate [reference compound] | -0.49 |
